# Data reported in ChEMBL document CHEMBL1201862, “PubChem BioAssay data set” (2004).
# “And” between values parts separate entries of the source, which are not always exact repeats. Equal entries are not always repeated.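 Each compound was tested at five concentrations against cells in 96-well plates for 48 hours. GI50 is the concentration that inhibits growth by half.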 The source made the active and inactive calls. No stated cut-off is given here; in the data, active = GI50 up to about 1.1 µM and inactive = higher.
# What was measured:
# Assay in all cases: NCI tumour cell line growth inhibition, 48 h
# NCI-H226 = system: NCI-H226
# T47D = system: T47D
# CAKI-1 = system: CAKI-1
# SN12C = system: SN12C
# SR = system: SR
# SK-MEL-28 = system: SK-MEL-28
# RXF 393 = system: RXF 393
# OVCAR-8 = system: OVCAR-8
# HT-29 = system: HT-29
# Malme-3M = system: Malme-3M
# MOLT-4 = system: MOLT-4
# UO-31 = system: UO-31
# RPMI-8226 = system: RPMI-8226
# SF-539 = system: SF-539
# COLO 205 = system: COLO 205
# A549 = system: A549
# SNB-19 = system: SNB-19
# HL-60 = system: HL-60
# NCI-H522 = system: NCI-H522
# HOP-62 = system: HOP-62
SMILES,GI50 (NCI-H226),GI50 (T47D),GI50 (CAKI-1),GI50 (SN12C),GI50 (SR),GI50 (SK-MEL-28),GI50 (RXF 393),GI50 (OVCAR-8),GI50 (HT-29),GI50 (Malme-3M),GI50 (MOLT-4),GI50 (UO-31),GI50 (RPMI-8226),GI50 (SF-539),GI50 (COLO 205),GI50 (A549),GI50 (SNB-19),GI50 (HL-60),GI50 (NCI-H522),GI50 (HOP-62)
O=C(/C=C/c1ccc(O)c(O)c1)OCCc1cccc2ccccc12,22 µM (inactive),12.6 µM (inactive),8.36 µM (inactive),2.56 µM (inactive),0.841 µM (active),4.15 µM (inactive),9.44 µM (inactive),5.07 µM (inactive),13.4 µM (inactive),6.5 µM (inactive),1.61 µM (inactive),4.21 µM (inactive),2.3 µM (inactive),4.79 µM (inactive),5.69 µM (inactive),4.54 µM (inactive),10.6 µM (inactive),1.38 µM (inactive),0.948 µM (active),–
CCSC1=C(C#N)C2(CCCCC2)C2=C(O)CC(C)(C)CC2=N1,53.6 µM (inactive),86.1 µM (inactive),35.3 µM (inactive),60.7 µM (inactive),> 100 µM (inactive),56.8 µM (inactive),52.7 µM (inactive),36.5 µM (inactive),> 100 µM (inactive),17.3 µM (inactive),> 100 µM (inactive),16.6 µM (inactive),70.3 µM (inactive),51.8 µM (inactive),> 100 µM (inactive),34.4 µM (inactive),25.2 µM (inactive),> 100 µM (inactive),39.4 µM (inactive),–
C=C(CCC(C)C1CCC2C3=C(C(=O)CC21C)C1(C)CCC(=O)[C@@H](C)C1CC3=O)C(C)C(=O)O (stereo partly specified),> 100 µM (inactive),30.7 µM (inactive),30.7 µM (inactive),> 100 µM (inactive),35.2 µM (inactive),> 100 µM (inactive),18 µM (inactive),61 µM (inactive),87.7 µM (inactive),> 100 µM (inactive),40.2 µM (inactive),15.2 µM (inactive),–,> 100 µM (inactive),45.1 µM (inactive),> 100 µM (inactive),> 100 µM (inactive),14.7 µM (inactive),45.8 µM (inactive),35.3 µM (inactive)
COC(=O)C1OC(O[C@H]2CC[C@]3(C)[C@H]4CC=C5[C@@H]6CC(C)(C)CC[C@]6(C(=O)OC6OCC(O)C(O)C6OC6OC(C)C(OC7OCC(O)C(O)C7O)C(O)C6O)[C@H](O)C[C@@]5(C)[C@]4(C)CC[C@H]3C2(C)C)C(O)C(O)C1O (stereo partly specified),7.13 µM (inactive) and 3.94 µM (inactive),8.28 µM (inactive) and 5.32 µM (inactive),2.61 µM (inactive) and 4 µM (inactive),1.84 µM (inactive) and 1.85 µM (inactive),3.14 µM (inactive) and 3.86 µM (inactive),1.87 µM (inactive) and 2.13 µM (inactive),11.3 µM (inactive) and 14.9 µM (inactive),–,2.77 µM (inactive) and 3.73 µM (inactive),–,–,1.71 µM (inactive) and 2.04 µM (inactive),4.51 µM (inactive) and 5.06 µM (inactive),–,1.66 µM (inactive) and 1.83 µM (inactive),3.9 µM (inactive) and 3.47 µM (inactive),4.56 µM (inactive) and 7.24 µM (inactive),2.63 µM (inactive) and 2.56 µM (inactive),1.78 µM (inactive) and 2.63 µM (inactive),8.85 µM (inactive) and 6.27 µM (inactive)
O=C1NC2(CCN(CCCC3(c4ccc(F)cc4)OCCO3)CC2)Oc2ccccc21,> 100 µM (inactive),35.8 µM (inactive),–,> 100 µM (inactive),39.7 µM (inactive),> 100 µM (inactive),> 100 µM (inactive),> 100 µM (inactive),42.4 µM (inactive),> 100 µM (inactive),51.8 µM (inactive),12.7 µM (inactive),61 µM (inactive),42.9 µM (inactive),86.7 µM (inactive),> 100 µM (inactive),> 100 µM (inactive),42.7 µM (inactive),–,> 100 µM (inactive)
O=c1[nH]c2nc3ccccc3c(=O)n2/c1=C/c1ccc(Cl)cc1,–,36.2 µM (inactive),> 100 µM (inactive),26.8 µM (inactive),> 100 µM (inactive),23.5 µM (inactive),46.5 µM (inactive),16.1 µM (inactive),–,28.9 µM (inactive),51.6 µM (inactive),67.6 µM (inactive),82.8 µM (inactive),21.7 µM (inactive),38.5 µM (inactive),> 100 µM (inactive),23.4 µM (inactive),48.8 µM (inactive),12.6 µM (inactive),53.7 µM (inactive)
CNC1C(O)C(NC)C2OC3(O)C(=O)CC(C)OC3OC2C1O (stereo unspecified),> 100 µM (inactive),> 100 µM (inactive),> 100 µM (inactive),> 100 µM (inactive),> 100 µM (inactive),> 100 µM (inactive),> 100 µM (inactive),> 100 µM (inactive),> 100 µM (inactive),–,> 100 µM (inactive),> 100 µM (inactive),> 100 µM (inactive),> 100 µM (inactive),> 100 µM (inactive),> 100 µM (inactive),> 100 µM (inactive),> 100 µM (inactive),> 100 µM (inactive),> 100 µM (inactive)
O=C(Cl)C1=C(c2ccccc2)C1c1ccccc1 (stereo unspecified),> 100 µM (inactive),> 100 µM (inactive),> 100 µM (inactive),> 100 µM (inactive),> 100 µM (inactive),> 100 µM (inactive),> 100 µM (inactive),> 100 µM (inactive),> 100 µM (inactive),> 100 µM (inactive),> 100 µM (inactive),–,> 100 µM (inactive),> 100 µM (inactive),> 100 µM (inactive),> 100 µM (inactive),> 100 µM (inactive),> 100 µM (inactive),> 100 µM (inactive),> 100 µM (inactive)
CN(C)c1ccc(C(=NN)c2ccc(N(C)C)cc2)cc1,3.52 µM (inactive),1.66 µM (inactive),0.276 µM (active),2.56 µM (inactive),0.231 µM (active),> 66.1 µM (inactive),1.98 µM (inactive),2.52 µM (inactive),0.443 µM (active),53.3 µM (inactive),0.361 µM (active),6.49 µM (inactive),0.859 µM (active),–,0.344 µM (active),1.3 µM (inactive),2.2 µM (inactive),0.322 µM (active),0.25 µM (active),1.9 µM (inactive)
O=C1NC2(CCCCC2)N=C2C(Cl)CCCC12Cl (stereo unspecified),> 100 µM (inactive),> 100 µM (inactive),–,> 100 µM (inactive),> 100 µM (inactive),> 100 µM (inactive),> 100 µM (inactive),> 100 µM (inactive),> 100 µM (inactive),> 100 µM (inactive),> 100 µM (inactive),> 100 µM (inactive),> 100 µM (inactive),> 100 µM (inactive),> 100 µM (inactive),0.0535 µM (active),> 100 µM (inactive),> 100 µM (inactive),> 100 µM (inactive),> 100 µM (inactive)
COc1ccc([N+](=O)[O-])c2c(NCC(O)CO)ccnc12 (stereo unspecified),–,36.4 µM (inactive),52.6 µM (inactive),77.8 µM (inactive),34.4 µM (inactive),> 100 µM (inactive),28.1 µM (inactive),50.4 µM (inactive),31.7 µM (inactive),20.3 µM (inactive),38.9 µM (inactive),63.1 µM (inactive),62.7 µM (inactive),28.8 µM (inactive),22.5 µM (inactive),35 µM (inactive),93.8 µM (inactive),51.1 µM (inactive),15.5 µM (inactive),38.6 µM (inactive)
Cc1ccc(S(=O)(=O)c2c(O)c3ccc(O)c(C)c3oc2=O)cc1,> 100 µM (inactive),> 100 µM (inactive),> 100 µM (inactive),> 100 µM (inactive),> 100 µM (inactive),> 100 µM (inactive),> 100 µM (inactive),> 100 µM (inactive),> 100 µM (inactive),> 100 µM (inactive),> 100 µM (inactive),> 100 µM (inactive),> 100 µM (inactive),> 100 µM (inactive),> 100 µM (inactive),> 100 µM (inactive),> 100 µM (inactive),23.4 µM (inactive),> 100 µM (inactive),–
COc1cc(/C=N/N=C2NCCCCN2)ccc1O,> 100 µM (inactive),53.8 µM (inactive),–,> 100 µM (inactive),> 100 µM (inactive),> 100 µM (inactive),> 100 µM (inactive),> 100 µM (inactive),80 µM (inactive),> 100 µM (inactive),> 100 µM (inactive),> 100 µM (inactive),> 100 µM (inactive),> 100 µM (inactive),> 100 µM (inactive),> 100 µM (inactive),> 100 µM (inactive),> 100 µM (inactive),> 100 µM (inactive),> 100 µM (inactive)
Clc1ccc(COC(Cn2ccnc2)c2ccc(Cl)cc2Cl)cc1 (stereo unspecified) [ECONAZOLE],–,6.9 µM (inactive),11.6 µM (inactive),12.5 µM (inactive),5.32 µM (inactive),17.2 µM (inactive),14.9 µM (inactive),11.4 µM (inactive),8.69 µM (inactive),12.3 µM (inactive),2.99 µM (inactive),4.13 µM (inactive),8.26 µM (inactive),18.8 µM (inactive),11.5 µM (inactive),11.2 µM (inactive),14.3 µM (inactive),6.87 µM (inactive),4.57 µM (inactive),12.9 µM (inactive)
